Source: patent publication US11505553B2, “2-(Het)aryl-substituted fused heterocycle derivatives as pesticides” (Bayer Aktiengesellschaft, priority 2017, dated 2022)
Read-outs that look alike come from different tables or passages of the source.

Assays:
Type in all cases: in vivo
Aphis gossypii = Aphis gossypii spray test (APHIGO); settings: 144 h, 6 dat, read-out: % efficacy
Protocol: Solvent: 14 parts by weight of dimethylformamide Emulsifier: alkylaryl polyglycol ether To produce an appropriate active ingredient formulation, 1 part by weight of active ingredient is dissolved with the stated parts by weight of solvent and made up with water containing an emulsifier concentration of 1000 ppm until the desired concentration is attained. For production of further test concentrations, the mixture is diluted with emulsifier-containing water. If addition of ammonium salts or/and penetrants is required, these are each added to the preparation solution in a concentration of 1000 ppm. Cotton plants (Gossypium hirsutum) severely infested by the cotton aphid (Aphis gossypii) are sprayed with an active ingredient formulation of the desired concentration. After the desired time, the kill in % is determined. 100% means that all aphids have been killed; 0% means that no aphids have been killed.

Nezara viridula = Nezara viridula spray test (NEZARA); settings: 96 h, NEZAVI, 4 dat, read-out: % efficacy
Protocol: Solvent: 52.5 parts by weight of acetone • 7 parts by weight of dimethylformamide Emulsifier: alkylaryl polyglycol ether To produce an appropriate active ingredient formulation, 1 part by weight of active ingredient is dissolved with the stated parts by weight of solvent and made up with water containing an emulsifier concentration of 1000 ppm until the desired concentration is attained. For production of further test concentrations, the mixture is diluted with emulsifier-containing water. If addition of ammonium salts or/and penetrants is required, these are each added to the preparation solution in a concentration of 1000 ppm. Barley plants (Hordeum vulgare) infested with larvae of the southern green shield bug (Nezara viridula) are sprayed with an active ingredient formulation of the desired concentration. After the desired time, the efficacy in % is determined. 100% means that all bugs have been killed; 0% means that no bugs have been killed.

Myzus persicae [1] = test: Myzus persicae drench test (MYZUPE D); settings: soil, 240 h, 10 dat, read-out: % efficacy
Protocol: Solvent: 7 parts by weight of dimethylformamide Emulsifier: 2 parts by weight of alkylaryl polyglycol ether To produce an appropriate active ingredient formulation, 1 part by weight of active ingredient is mixed with the stated amounts of solvent and emulsifier, and the concentrate is diluted with water to the desired concentration, it being necessary to take into account soil volume into which drenching is effected. It should be ensured that a concentration of 40 ppm of emulsifier in the soil is not exceeded. For production of further test concentrations, the mixture is diluted with water. Savoy cabbage plants (Brassica oleracea) in earth pots, infested by all stages of the green peach aphid (Myzus persicae), are drenched with an active ingredient formulation of the desired concentration. After the desired time, the efficacy in % is determined. 100% means that all aphids have been killed; 0% means that no aphids have been killed.

Tetranychus urticae = Tetranychus urticae spray test; OP-resistant (TETRUR), contrastive examples; settings: 144 h, 6 dat, read-out: % efficacy
Protocol: Solvent: 78.0 parts by weight of acetone • • 1.5 parts by weight of dimethylformamide Emulsifier: alkylaryl polyglycol ether To produce an appropriate active ingredient formulation, 1 part by weight of active ingredient is dissolved with the stated parts by weight of solvent and made up with water containing an emulsifier concentration of 1000 ppm until the desired concentration is attained. For production of further test concentrations, the mixture is diluted with emulsifier-containing water. Discs of bean leaves (Phaseolus vulgaris) infested by all stages of the common spider mite (Tetranychus urticae) are sprayed with an active ingredient formulation of the desired concentration. After the desired time, the efficacy in % is determined. 100% means that all spider mites have been killed; 0% means that no spider mites have been killed.

Nilaparvata lugens [2] = test: Nilaparvata lugens spray test (NILALU); settings: 96 h, 4 dat, read-out: % efficacy
Protocol: Solvent: 52.5 parts by weight of acetone • 7 parts by weight of dimethylformamide
Emulsifier: alkylaryl polyglycol ether
To produce an appropriate active ingredient formulation, 1 part by weight of active ingredient is dissolved with the stated parts by weight of solvent and made up with water containing an emulsifier concentration of 1000 ppm until the desired concentration is attained. For production of further test concentrations, the mixture is diluted with emulsifier-containing water. If addition of ammonium salts or/and penetrants is required, these are each added to the preparation solution in a concentration of 1000 ppm.
Rice plants (Oryza sativa) are sprayed with an active ingredient formulation of the desired concentration and then populated with larvae of the rice cicada (Nilaparvata lugens).
After the desired time, the efficacy in % is determined. 100% means that all rice cicadas have been killed; 0% means that no rice cicadas have been killed.

Nilaparvata lugens [3] = test: Nilaparvata lugens test (NILALU S); settings: read-out: % efficacy
Protocol: Solvent: 14 parts by weight of dimethylformamide Emulsifier: 2 parts by weight of alkylaryl polyglycol ether To produce an appropriate active ingredient formulation, 1 part by weight of active ingredient is dissolved with the stated parts by weight of solvent and emulsifier and made up with water until the desired concentration is attained. For production of further test concentrations, the mixture is diluted with water. If addition of ammonium salts or/and penetrants (rapeseed oil methyl ester) is required, these are each pipetted into the finished preparation solution in a concentration of 1000 ppm after the dilution. Rice plants (Oryza sativa, var. Balilla) are treated by spraying with the active ingredient formulation in the desired concentration and then populated with L3 larvae of the brown planthopper (Nilaparvata lugens). After the desired time, the kill in % is determined. 100% means that all planthoppers have been killed and 0%, means that no planthoppers have been killed.

Myzus persicae [4] = test: Myzus persicae spray test (MYZUPE), contrastive examples; settings: 120 h, 5 dat, read-out: % efficacy
Protocol: Solvent: 78.0 parts by weight of acetone • • 1.5 parts by weight of dimethylformamide Emulsifier: alkylaryl polyglycol ether To produce a suitable active ingredient formulation, 1 part by weight of active ingredient is dissolved with the specified parts by weight of solvent and made up to the desired concentration with water containing an emulsifier concentration of 1000 ppm. To produce further test concentrations, the formulation is diluted with emulsifier-containing water. Discs of chinese cabbage leaves (Brassica pekinensis) infested by all stages of the green peach aphid (Myzus persicae) are sprayed with an active ingredient formulation of the desired concentration. After the desired time, the efficacy in % is determined. 100% means that all aphids have been killed; 0% means that no aphids have been killed.

CCNC(=O)Nc1ccc(S(=O)(=O)CC)c(-c2nc3cc(C(F)(F)C(F)(F)F)nnc3n2C)n1 [Comparison, reference compound] gave an Emax at 4 ppm (Aphis gossypii) of 15%, an Emax at 0.8 g/ha (Nezara viridula) of 0% and an Emax at 0.8 ppm (Myzus persicae [1]) of 0%. For the same molecule, the Emax at 100 g/ha (Tetranychus urticae) was 0%, the Emax at 4 g/ha (Nilaparvata lugens [2]) was 0% and the Emax at 0.8 ppm (Nilaparvata lugens [3]; 168 h, 7 dat) was 5%. For the same molecule, the Emax at 0.8 ppm (Nilaparvata lugens [3]; 336 h, 14 dat) was 20% and the Emax at 4 g/ha (Myzus persicae [4]) was 0%.
